The results in this text go back to ChEMBL document CHEMBL1201862, “PubChem BioAssay data set” (2004).

The nature of experiment [1]: inhibitors of firefly luciferase expression or activity, dose response, H4 neuroglioma cells, luminescence (AID 1990). It counts as functional, cell-based.
Experiment [2] is described as follows: Luminescence Cell-Based Dose Response HTS to Identify Inhibitors of 5'UTR Stem-Loop Driven Prion Protein mRNA Translation in H4 Neuroglioblastoma Cells. [Related pubchem assays: 1827 (Project Summary), 1813 (Primary HTS)]. It counts as functional.
The nature of experiment [3]: inhibitors of SNCA 5'UTR-driven reporter translation, confirmation, H4 neuroglioma cells, luminescence (AID 1988). It counts as functional, cell-based.
The next experiment deals with T1, CAAX prenyl protease 2 (Saccharomyces cerevisiae S288c, UniProt Q03530).
T1 sequence (Q03530 whole entry): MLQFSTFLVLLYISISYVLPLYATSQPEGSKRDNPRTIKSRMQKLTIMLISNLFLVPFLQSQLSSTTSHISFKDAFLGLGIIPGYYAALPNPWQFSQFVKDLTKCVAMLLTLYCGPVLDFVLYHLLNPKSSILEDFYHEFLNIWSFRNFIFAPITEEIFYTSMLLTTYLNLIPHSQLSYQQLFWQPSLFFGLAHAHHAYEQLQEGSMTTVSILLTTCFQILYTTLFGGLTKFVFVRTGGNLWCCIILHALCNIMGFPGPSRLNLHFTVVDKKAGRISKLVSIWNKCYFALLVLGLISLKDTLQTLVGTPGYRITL
It counts as biochemical.

A short description of experiment [4]: cytotoxicity toward NIH3T3 fibroblasts, dose response, counter-screen, cell-based, ATP luminescence, mouse fibroblasts (AID 2010).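 Further: cells exposed to compound for about 90 hours before reading.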 It counts as functional.
The nature of experiment [5]: inhibitors of intracellular T. cruzi replication, confirmation, NIH3T3 host cells, beta-gal luminescence (AID 2044).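 Further: intracellular parasites grown in NIH/3T3 mouse fibroblasts as host cells; luminescent beta-galactosidase reporter signal from transgenic T. cruzi replicating inside host cells; inhibitors lower the luminescence signal.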 It counts as functional, cell-based.
The target of another experiment is CAAX prenyl protease 1 (Saccharomyces cerevisiae S288c, UniProt P47154). The experiment can be described thus: Ste24 protease inhibitors, dose response, biochemical, S. cerevisiae, plate reader, cherry-pick (AID 488815).
CAAX prenyl protease 1, sequence (P47154 whole entry): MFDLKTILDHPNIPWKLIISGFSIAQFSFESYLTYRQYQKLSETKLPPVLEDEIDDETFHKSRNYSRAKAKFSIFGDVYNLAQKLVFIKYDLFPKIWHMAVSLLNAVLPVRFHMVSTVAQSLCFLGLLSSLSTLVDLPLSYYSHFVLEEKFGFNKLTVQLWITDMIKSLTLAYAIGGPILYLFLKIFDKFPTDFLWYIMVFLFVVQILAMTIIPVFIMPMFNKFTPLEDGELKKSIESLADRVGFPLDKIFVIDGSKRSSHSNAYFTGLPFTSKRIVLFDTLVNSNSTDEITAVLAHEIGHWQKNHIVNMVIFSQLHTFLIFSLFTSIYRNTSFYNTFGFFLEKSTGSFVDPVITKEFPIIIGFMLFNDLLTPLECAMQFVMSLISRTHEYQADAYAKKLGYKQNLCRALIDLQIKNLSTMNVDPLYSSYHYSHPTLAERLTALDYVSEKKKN
A further experiment has as its target T2, Hexokinase HKDC1 (Homo sapiens, UniProt Q2TB90).
T2 sequence (Q2TB90 whole entry): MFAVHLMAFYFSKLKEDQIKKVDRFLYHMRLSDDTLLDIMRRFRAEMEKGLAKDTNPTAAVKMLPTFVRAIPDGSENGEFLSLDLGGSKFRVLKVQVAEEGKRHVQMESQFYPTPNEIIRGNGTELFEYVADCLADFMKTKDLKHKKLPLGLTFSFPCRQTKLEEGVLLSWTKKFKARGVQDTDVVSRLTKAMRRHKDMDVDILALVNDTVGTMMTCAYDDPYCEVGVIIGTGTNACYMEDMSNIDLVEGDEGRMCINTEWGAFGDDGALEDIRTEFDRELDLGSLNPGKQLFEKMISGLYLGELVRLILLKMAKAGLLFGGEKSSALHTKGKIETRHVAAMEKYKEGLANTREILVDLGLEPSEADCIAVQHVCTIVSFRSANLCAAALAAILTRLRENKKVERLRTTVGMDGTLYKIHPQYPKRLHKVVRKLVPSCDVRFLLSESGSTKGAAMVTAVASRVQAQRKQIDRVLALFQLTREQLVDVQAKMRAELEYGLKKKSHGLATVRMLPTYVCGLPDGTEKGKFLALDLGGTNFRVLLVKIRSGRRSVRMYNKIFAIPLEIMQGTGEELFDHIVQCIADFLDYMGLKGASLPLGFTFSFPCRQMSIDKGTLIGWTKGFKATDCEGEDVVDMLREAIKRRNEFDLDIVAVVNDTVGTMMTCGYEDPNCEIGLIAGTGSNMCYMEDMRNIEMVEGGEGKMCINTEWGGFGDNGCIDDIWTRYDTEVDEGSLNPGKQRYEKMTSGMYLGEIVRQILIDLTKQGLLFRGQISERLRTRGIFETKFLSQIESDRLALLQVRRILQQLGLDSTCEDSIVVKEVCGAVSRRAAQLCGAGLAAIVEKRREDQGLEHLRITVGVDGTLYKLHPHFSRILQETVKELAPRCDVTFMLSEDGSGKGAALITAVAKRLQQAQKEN
The experiment can be described thus: HKDC1 hexokinase inhibitors, dose response, biochemical, W721R variant (AID 504729). Format: functional.

For experiment [6], the target named is Heat shock protein HSP 90-alpha (Homo sapiens, UniProt P07900). The experiment can be described thus: Luminescence-based dose response biochemical high throughput screening assay for inhibitors of the Heat Shock Protein 90 (HSP90). [Related pubchem assays: 1831 (Summary AID.), 1846 (Confirmation screen.), 1789 (Primary screen.)].
The target of experiment [7] is Serine/threonine-protein phosphatase (Homo sapiens, UniProt Q9BPW0). Nature of the experiment: PP5 phosphatase inhibitors, dose response, biochemical, fluorescence (AID 2395).
Serine/threonine-protein phosphatase, sequence (Q9BPW0 whole entry): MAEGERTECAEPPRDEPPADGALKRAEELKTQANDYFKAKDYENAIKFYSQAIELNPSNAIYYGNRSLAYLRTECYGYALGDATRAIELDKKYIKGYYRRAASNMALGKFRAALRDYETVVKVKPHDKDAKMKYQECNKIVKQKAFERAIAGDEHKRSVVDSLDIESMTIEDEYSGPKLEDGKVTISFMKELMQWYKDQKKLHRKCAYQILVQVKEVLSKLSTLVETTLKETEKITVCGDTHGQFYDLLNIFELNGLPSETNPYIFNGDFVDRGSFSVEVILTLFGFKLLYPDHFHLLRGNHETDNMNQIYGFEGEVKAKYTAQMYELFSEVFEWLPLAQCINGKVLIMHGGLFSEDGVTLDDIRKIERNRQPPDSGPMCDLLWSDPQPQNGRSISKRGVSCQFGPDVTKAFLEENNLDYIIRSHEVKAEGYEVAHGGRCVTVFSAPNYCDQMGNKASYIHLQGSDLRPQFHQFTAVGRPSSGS
Experiment [8] relates to Streptococcus sp. 'group A'. Nature of the experiment: growth inhibition of control SK(-) GAS strain, dose response, counter-screen for streptokinase expression inhibitor project, luminescence, kanamycin, BacTiterGlo, confirmation (AID 1900). Format: functional, organism-based. A general note: Counterscreens check selectivity or assay interference.
The nature of experiment [9]: Intein inhibitors as potential Tuberculosis drugs, a cytotoxicity screen. [Related pubchem assays (depositor defined):AID2221, AID2223, AID434968, AID435010, AID449749, AID449750, AID489010]. It counts as functional.

Usually EC50 stands for the midpoint of the concentration-response curve. Broadly, the AC50 is the midpoint of the concentration-response curve, whichever way the signal moves. As usually defined, the IC50 is the concentration that gives 50% inhibition. What is called CC50 is the concentration giving 50% cytotoxicity.

Calls of active or inactive are those of the source.
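Wherever CC50 is given: cells exposed to compound for 72 hours before luminescence readout.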

With `COc1cc(OC)c(NC2=CC(=O)C(=O)c3ccccc32)cc1Cl`, the EC50 in experiment [1] is 412 nM (active); in experiment [2] it was 3700 nM (active); in experiment [3], 197 nM (active).
In the case of `CCCCCCCCCCOC(=O)Cn1c(COc2cccc(OC)c2)[n+](C)c2ccccc21`, the AC50 at CAAX prenyl protease 2 was 65200 nM (active); on CAAX prenyl protease 1, 2110 nM (active). Further, the concentration giving a half-maximal response (EC50) in experiment [4] is > 60000 nM (not active); in experiment [5], 765 nM (active).
For `CCc1ccc(S(=O)(=O)/N=C2\C=C(Nc3cccc(C(=O)O)c3)C(=O)c3ccccc32)cc1`, the values for the half-maximal inhibitory concentration (IC50) (on Hexokinase HKDC1; in [6]; in experiment [7]) were 4780 nM (active), 926 nM (active) and 6850 nM (active), respectively. In addition, in [8], the EC50 was 1260 nM (active).
With `COc1cc2c(cc1OC)-c1c(OC)c(OC)cc3c1C(C2)N(C)CC3` (configuration not stated), in [9], the CC50 is > 40000 nM (active).
